Where two headings read alike, the source gives them in different places.
Tests used:
[1] = target: T1, human Slo3 (Homo sapiens, UniProt A8MYU2); assay: Whole-cell patch-clamp of Slo3 currents in CHO cells co-expressing human Slo3 and LRRC52; assay type: cell-based
T1 construct: expressed in transfected cells; host or cells: CHO cells, transient co-transfection with pcDNA3.1(+) vectors
T1 sequence (A8MYU2 1-1149): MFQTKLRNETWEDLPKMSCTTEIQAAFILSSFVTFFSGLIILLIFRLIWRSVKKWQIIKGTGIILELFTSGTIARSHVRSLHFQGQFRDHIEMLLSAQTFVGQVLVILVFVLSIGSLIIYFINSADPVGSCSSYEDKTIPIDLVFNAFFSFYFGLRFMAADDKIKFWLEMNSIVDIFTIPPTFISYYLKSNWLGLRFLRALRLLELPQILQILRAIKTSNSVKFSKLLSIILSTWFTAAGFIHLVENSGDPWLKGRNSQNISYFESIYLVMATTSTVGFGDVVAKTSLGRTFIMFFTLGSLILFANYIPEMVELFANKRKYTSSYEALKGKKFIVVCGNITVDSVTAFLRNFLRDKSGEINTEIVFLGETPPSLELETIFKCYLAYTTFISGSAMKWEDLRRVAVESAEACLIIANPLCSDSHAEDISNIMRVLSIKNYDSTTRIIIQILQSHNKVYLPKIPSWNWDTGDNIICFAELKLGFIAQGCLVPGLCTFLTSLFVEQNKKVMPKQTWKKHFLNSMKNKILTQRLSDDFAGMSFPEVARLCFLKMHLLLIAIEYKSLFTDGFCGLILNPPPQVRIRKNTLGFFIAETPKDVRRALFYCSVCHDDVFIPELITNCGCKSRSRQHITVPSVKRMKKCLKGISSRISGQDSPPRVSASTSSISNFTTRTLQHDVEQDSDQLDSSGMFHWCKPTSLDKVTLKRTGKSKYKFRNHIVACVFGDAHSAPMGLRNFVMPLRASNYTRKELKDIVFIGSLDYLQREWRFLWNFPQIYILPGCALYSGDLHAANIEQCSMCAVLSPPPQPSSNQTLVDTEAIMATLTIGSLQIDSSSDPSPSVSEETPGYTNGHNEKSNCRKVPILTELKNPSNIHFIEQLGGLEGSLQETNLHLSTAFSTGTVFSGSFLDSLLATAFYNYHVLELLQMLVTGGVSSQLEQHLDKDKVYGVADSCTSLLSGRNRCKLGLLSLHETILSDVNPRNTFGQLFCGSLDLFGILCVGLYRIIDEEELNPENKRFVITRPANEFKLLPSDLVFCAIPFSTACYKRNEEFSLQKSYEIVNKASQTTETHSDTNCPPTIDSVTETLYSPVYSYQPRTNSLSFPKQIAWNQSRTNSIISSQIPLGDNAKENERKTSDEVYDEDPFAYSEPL
T1 sequence (Q8N7C0 24-313 partner): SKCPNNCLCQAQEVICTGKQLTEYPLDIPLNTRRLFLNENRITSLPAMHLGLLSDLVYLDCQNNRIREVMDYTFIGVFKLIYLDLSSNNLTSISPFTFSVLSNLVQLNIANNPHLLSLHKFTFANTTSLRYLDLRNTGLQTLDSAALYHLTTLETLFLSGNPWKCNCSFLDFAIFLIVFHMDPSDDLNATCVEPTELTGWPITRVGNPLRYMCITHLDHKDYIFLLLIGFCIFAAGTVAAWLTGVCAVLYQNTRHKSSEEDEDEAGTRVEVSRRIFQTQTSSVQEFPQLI

[2] = test system: CatSper; details: relative to progesterone; cited from earlier work
[3] = dose-response, Hill fit, mean ± SD, read-out: IC50 for inhibition of Slo3
[4] = 50 µM prostaglandin, n = 3, in range of current rundown

Compound | decrease of Slo3 current amplitude ([1]; 50 μM steroid, +100 mV, n ≥ 3) | also measured
CC(=O)[C@@]1(O)CC[C@H]2[C@@H]3CC=C4C[C@@H](O)CC[C@]4(C)[C@H]3CC[C@@]21C [17α-hydroxypregnenolone] | ≤ 18% | 
CC(=O)C1(O)CCC2C3CCC4=CC(=O)CCC4(C)C3CCC21C (stereo not drawn) [17α-hydroxyprogesterone] | significantly decreased | IC50 [1, 3]: 27 ± 10 µM
C[C@]12CC[C@H](O)CC1=CC[C@@H]1[C@@H]2CC[C@]2(C)C(=O)CC[C@@H]12 [DHEA, dehydroepiandrosterone] | significantly decreased | IC50 [1]: 41 ± 4 µM
CCCCC[C@H](O)/C=C/[C@H]1[C@H](O)CC(=O)[C@@H]1CCCCCCC(=O)O [PGE1, prostagladin E1] |  | decrease of Slo3 current amplitude [1, 4]: 18 ± 7%
CCCCC[C@H](O)/C=C/[C@H]1[C@H](O)CC(=O)[C@@H]1C/C=C\CCCC(=O)O [PGE2, prostaglandin E2] |  | decrease of Slo3 current amplitude [1, 4]: 7 ± 7%
[Zn+2] [Zn^2+] |  | decrease of Slo3 current amplitude ([1]; 1 mM Zn^2+, n = 4, in range of current rundown): 14 ± 13%
C[C@]12CC[C@H]3[C@@H](CC=C4C[C@@H](O)CC[C@@]43C)[C@@H]1CC[C@@H]2O [androstenediol] | ≤ 18% | 
C[C@]12CCC(=O)C=C1CC[C@@H]1[C@@H]2CC[C@]2(C)C(=O)CC[C@@H]12 [androstenedione] | ≤ 18% | 
CCCCC/C=C\C/C=C\C/C=C\C/C=C\CCCC(=O)O [arachidonic acid] |  | effect on Slo3 currents ([1]; 3 µM arachidonic acid, n = 7): did not affect
C[C@]12C[C@H](O)[C@H]3[C@@H](CCC4=CC(=O)CC[C@@]43C)[C@@H]1CC[C@@H]2C(=O)CO [corticosterone] | significantly decreased | IC50 [1, 3]: 58 ± 11 µM
C[C@]12CCC(=O)C=C1CC[C@@H]1[C@@H]2C(=O)C[C@@]2(C)[C@H]1CC[C@]2(O)C(=O)CO [cortisone] | ≤ 18% | 
C[C@]12CC[C@@H]3c4ccc(O)cc4CC[C@H]3[C@@H]1CC[C@@H]2O [estradiol] | significantly decreased | IC50 [1]: 8.9 ± 4.4 µM; fold less potent than progesterone to activate CatSper [2]: around 100 fold
C[C@]12CC[C@@H]3c4ccc(O)cc4CC[C@H]3[C@@H]1CCC2=O [estrone] | ≤ 18% | 
CC(=O)[C@H]1CC[C@H]2[C@@H]3CC=C4C[C@@H](O)CC[C@]4(C)[C@H]3CC[C@]12C [pregnenolone] | ≤ 18% | 
CC(=O)[C@H]1CC[C@H]2[C@@H]3CCC4=CC(=O)CC[C@]4(C)[C@H]3CC[C@]12C [progesterone] | significantly decreased | IC50 [1, 3]: 5.2 ± 2.9 µM
C[C@]12CC[C@H]3[C@@H](CCC4=CC(=O)CC[C@@]43C)[C@@H]1CC[C@@H]2O [testosterone] | significantly decreased | IC50 [1]: 17 ± 14 µM
